Measured values published in ChEMBL document CHEMBL1151416, “Revised structure of phaeantharine” (1983).

Assays:
Staphylococcus aureus = assay: Antibacterial activity against Staphylococcus aureus by agar-diffusion test; format: functional
Bacillus subtilis = assay: Antibacterial activity against Bacillus subtilis by agar-diffusion test; format: functional

MIC (Staphylococcus aureus): 86 µg/mL
MIC (Bacillus subtilis): 74 µg/mL
Compound: COc1cc2cc[n+](C)c(Cc3ccc(Oc4cc(Cc5c6cc(OC)c(OC)cc6cc[n+]5C)ccc4OC)cc3)c2cc1OC [PHAEANTHARINE]
